# Test results as given in patent US20110118262A1, “Pyrrolidinyl and Piperidinyl Compounds Useful as NHE-1 Inhibitiors” (BOEHRINGER INGELHEIM INTERNATIONAL GMBH, priority 2008, published 2011).
# Target: T1, NHE-1 (Homo sapiens, UniProt P19634)
# T1 construct: endogenous in cells; host or cells: HT-29
# Test: Evaluation of NHE-1 Inhibition (pHi) in HT-29 cells
# Format: cell-based
# Conditions: BCECF dye, 50% inhibition of the intracellular pH recovery, read-out: NHE1 HT29 pHi IC50
# In short: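 Intracellular pH measured with BCECF in HT-29 cells after 24 h culture. Cells dye-loaded 30 min at 37° C, then acid-loaded with NH4Cl-containing choline buffer (pH 7.5) for 30 min at RT. Compounds added on an FDSS6000 fluorescence reader.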
# T1 sequence (P19634 whole entry): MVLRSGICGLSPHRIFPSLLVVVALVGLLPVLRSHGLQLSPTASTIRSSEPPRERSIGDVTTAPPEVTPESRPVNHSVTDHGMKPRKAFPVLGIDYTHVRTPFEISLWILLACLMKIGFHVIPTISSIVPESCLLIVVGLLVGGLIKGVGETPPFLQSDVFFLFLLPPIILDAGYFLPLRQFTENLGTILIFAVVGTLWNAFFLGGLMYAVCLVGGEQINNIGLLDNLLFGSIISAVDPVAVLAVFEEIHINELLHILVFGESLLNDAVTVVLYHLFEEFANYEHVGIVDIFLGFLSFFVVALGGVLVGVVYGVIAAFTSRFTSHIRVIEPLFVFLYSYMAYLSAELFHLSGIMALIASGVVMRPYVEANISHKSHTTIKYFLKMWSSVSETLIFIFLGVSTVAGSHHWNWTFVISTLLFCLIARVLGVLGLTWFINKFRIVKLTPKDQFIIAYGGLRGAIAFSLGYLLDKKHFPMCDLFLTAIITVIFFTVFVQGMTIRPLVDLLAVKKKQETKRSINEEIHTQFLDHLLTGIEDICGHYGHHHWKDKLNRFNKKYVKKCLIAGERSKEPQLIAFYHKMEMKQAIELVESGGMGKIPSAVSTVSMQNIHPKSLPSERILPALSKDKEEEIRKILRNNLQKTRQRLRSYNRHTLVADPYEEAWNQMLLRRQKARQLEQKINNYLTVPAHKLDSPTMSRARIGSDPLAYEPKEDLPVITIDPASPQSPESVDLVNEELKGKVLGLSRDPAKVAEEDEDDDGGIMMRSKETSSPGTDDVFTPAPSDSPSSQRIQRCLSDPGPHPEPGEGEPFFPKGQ
row,IC50 [nM],SMILES
1,46,"COc1cccc(C(=O)N2CCC(c3ccc(C(=O)NC(=N)N)cc3C(F)(F)F)CC2)c1OC [N-{4-[1-(2,3-Dimethoxy-benzoyl)-piperidin-4-yl]-3-trifluoromethyl-benzoyl}-guanidine]"
2,10,Cc1cc(C2CCN(C(=O)C(C)(C)N)CC2)c(C(F)(F)F)cc1C(=O)NC(=N)N [N-{4-[1-(2-Amino-2-methyl-propionyl)-piperidin-4-yl]-2-methyl-5-trifluoromethyl-benzoyl}-guanidine]
3,8,CC(C)(N)C(=O)N1CCC(c2ccc(C(=O)NC(=N)N)cc2C(F)(F)F)CC1 [N-{4-[1-(2-Amino-2-methyl-propionyl)-piperidin-4-yl]-3-trifluoromethyl-benzoyl}-guanidine]
4,16,"CC(C)(C)C(N)C(=O)N1CCC(c2ccc(C(=O)NC(=N)N)cc2C(F)(F)F)CC1 (stereo not shown) [N-{4-[1-(2-Amino-3,3-dimethyl-butyryl)-piperidin-4-yl]-3-trifluoromethyl-benzoyl}-guanidine]"
5,19,N=C(N)NC(=O)c1ccc(C2CCN(C(=O)C(N)CC3CC3)CC2)c(C(F)(F)F)c1 (stereo not shown) [N-{4-[1-(2-Amino-3-cyclopropyl-propionyl)-piperidin-4-yl]-3-trifluoromethyl-benzoyl}-guanidine]
6,5,N=C(N)NC(=O)c1ccc(C2CCN(C(=O)C(N)CO)CC2)c(C(F)(F)F)c1 (stereo not shown) [N-{4-[1-(2-Amino-3-hydroxy-propionyl)-piperidin-4-yl]-3-trifluoromethyl-benzoyl}-guanidine]
7,12,CC(C)C(N)C(=O)N1CCC(c2ccc(C(=O)NC(=N)N)cc2C(F)(F)F)CC1 (stereo not shown) [N-{4-[1-(2-Amino-3-methyl-butyryl)-piperidin-4-yl]-3-trifluoromethyl-benzoyl}-guanidine]
8,19,N=C(N)NC(=O)c1ccc(C2CCN(C(=O)C(N)Cc3ccccc3)CC2)c(C(F)(F)F)c1 (stereo not shown) [N-{4-[1-(2-Amino-3-phenyl-propionyl)-piperidin-4-yl]-3-trifluoromethyl-benzoyl}-guanidine]
9,32,N=C(N)NC(=O)c1ccc(C2CCN(C(=O)C(N)Cc3ccncc3)CC2)c(C(F)(F)F)c1 (stereo not shown) [N-{4-[1-(2-Amino-3-pyridin-4-yl-propionyl)-piperidin-4-yl]-3-trifluoromethyl-benzoyl}-guanidine]
10,35,N=C(N)NC(=O)c1ccc(C2CCN(C(=O)C(N)Cc3cccs3)CC2)c(C(F)(F)F)c1 (stereo not shown) [N-{4-[1-(2-Amino-3-thiophen-2-yl-propionyl)-piperidin-4-yl]-3-trifluoromethyl-benzoyl}-guanidine]
11,40,CC(C)CC(N)C(=O)N1CCC(c2ccc(C(=O)NC(=N)N)cc2C(F)(F)F)CC1 (stereo not shown) [N-{4-[1-(2-Amino-4-methyl-pentanoyl)-piperidin-4-yl]-3-trifluoromethyl-benzoyl}-guanidine]
12,13,CSCCC(N)C(=O)N1CCC(c2ccc(C(=O)NC(=N)N)cc2C(F)(F)F)CC1 (stereo not shown) [N-{4-[1-(2-Amino-4-methylsulfanyl-butyryl)-piperidin-4-yl]-3-trifluoromethyl-benzoyl}-guanidine]
13,4,N=C(N)NC(=O)c1ccc(C2CCN(C(=O)CN)CC2)c(C(F)(F)F)c1 [N-{4-[1-(2-Amino-acetyl)-piperidin-4-yl]-3-trifluoromethyl-benzoyl}-guanidine]
14,5,CC(N)C(=O)N1CCC(c2ccc(C(=O)NC(=N)N)cc2C(F)(F)F)CC1 (stereo not shown) [N-{4-[1-(2-Amino-propionyl)-piperidin-4-yl]-3-trifluoromethyl-benzoyl}-guanidine]
15,60,CS(=O)(=O)c1ccc(C(=O)N2CCC(c3ccc(C(=O)NC(=N)N)cc3C(F)(F)F)CC2)c(Cl)c1 [N-{4-[1-(2-Chloro-4-methanesulfonyl-benzoyl)-piperidin-4-yl]-3-trifluoromethyl-benzoyl}-guanidine]
16,119,N=C(N)NC(=O)c1ccc(C2CCN(C(=O)c3ccccc3Cl)CC2)c(C(F)(F)F)c1 [N-{4-[1-(2-Chloro-benzoyl)-piperidin-4-yl]-3-trifluoromethyl-benzoyl}-guanidine]
17,93,"N#Cc1ccccc1C(=O)N1CC=C(c2ccc(C(=O)NC(=N)N)cc2C(F)(F)F)CC1 [N-{4-[1-(2-Cyano-benzoyl)-1,2,3,6-tetrahydro-pyridin-4-yl]-3-trifluoromethyl-benzoyl}-guanidine]"
18,62,N#Cc1ccccc1C(=O)N1CCC(c2ccc(C(=O)NC(=N)N)cc2C(F)(F)F)CC1 [N-{4-[1-(2-Cyano-benzoyl)-piperidin-4-yl]-3-trifluoromethyl-benzoyl}-guanidine]
19,5,CN(C)CC(=O)N1CCC(c2ccc(C(=O)NC(=N)N)cc2C(F)(F)F)CC1 [N-{4-[1-(2-Dimethylamino-acetyl)-piperidin-4-yl]-3-trifluoromethyl-benzoyl}-guanidine]
20,305,N=C(N)NC(=O)c1ccc(C2CCN(C(=O)c3ccc(C(F)(F)F)cc3F)CC2)c(C(F)(F)F)c1 [N-{4-[1-(2-Fluoro-4-trifluoromethyl-benzoyl)-piperidin-4-yl]-3-trifluoromethyl-benzoyl}-guanidine]

row,IC50 [nM],SMILES
1,125,N=C(N)NC(=O)c1ccc(C2CCN(C(=O)c3ccccc3F)CC2)c(C(F)(F)F)c1 [N-{4-[1-(2-Fluoro-benzoyl)-piperidin-4-yl]-3-trifluoromethyl-benzoyl}-guanidine]
2,16,Cc1cc(C2CCN(C(=O)C(C)(C)O)CC2)c(C(F)(F)F)cc1C(=O)NC(=N)N [N-{4-[1-(2-Hydroxy-2-methyl-propionyl)-piperidin-4-yl]-2-methyl-5-trifluoromethyl-benzoyl}-guanidine]
3,6,N=C(N)NC(=O)c1ccc(C2CCN(C(=O)Cn3ccnc3)CC2)c(C(F)(F)F)c1 [N-{4-[1-(2-Imidazol-1-yl-acetyl)-piperidin-4-yl]-3-trifluoromethyl-benzoyl}-guanidine]
4,54,C[S+]([O-])c1ccccc1C(=O)N1CCC(c2ccc(C(=O)NC(=N)N)cc2C(F)(F)F)CC1 (stereo not shown) [N-{4-[1-(2-Methanesulfinyl-benzoyl)-piperidin-4-yl]-3-trifluoromethyl-benzoyl}-guanidine]
5,73,"CS(=O)(=O)c1ccccc1C(=O)N1CC=C(c2ccc(C(=O)NC(=N)N)cc2C(F)(F)F)CC1 [N-{4-[1-(2-Methanesulfonyl-benzoyl)-1,2,3,6-tetrahydro-pyridin-4-yl]-3-trifluoromethyl-benzoyl}-guanidine]"
6,69,CS(=O)(=O)c1ccccc1C(=O)N1CCC(c2ccc(C(=O)NC(=N)N)cc2C(F)(F)F)CC1 [N-{4-[1-(2-Methanesulfonyl-benzoyl)-piperidin-4-yl]-3-trifluoromethyl-benzoyl}-guanidine]
7,22,COCC(=O)N1CCC(c2ccc(C(=O)NC(=N)N)cc2C(F)(F)F)CC1 [N-{4-[1-(2-Methoxy-acetyl)-piperidin-4-yl]-3-trifluoromethyl-benzoyl}-guanidine]
8,42,COc1ncccc1C(=O)N1CCC(c2ccc(C(=O)NC(=N)N)cc2C(F)(F)F)CC1 [N-{4-[1-(2-Methoxy-pyridine-3-carbonyl)-piperidin-4-yl]-3-trifluoromethyl-benzoyl}-guanidine]
9,40,COc1cc(C(=O)N2CCC(c3ccc(C(=O)NC(=N)N)cc3C(F)(F)F)CC2)ccn1 [N-{4-[1-(2-Methoxy-pyridine-4-carbonyl)-piperidin-4-yl]-3-trifluoromethyl-benzoyl}-guanidine]
10,51,Cc1ccccc1C(=O)N1CCC(c2ccc(C(=O)NC(=N)N)cc2C(F)(F)F)CC1 [N-{4-[1-(2-Methyl-benzoyl)-piperidin-4-yl]-3-trifluoromethyl-benzoyl}-guanidine]
11,12,CC1(C(=O)N2CCC(c3ccc(C(=O)NC(=N)N)cc3C(F)(F)F)CC2)CCCN1 (stereo not shown) [N-{4-[1-(2-Methyl-pyrrolidine-2-carbonyl)-piperidin-4-yl]-3-trifluoromethyl-benzoyl}-guanidine]
12,25,N=C(N)NC(=O)c1ccc(C2CCN(C(=O)CN3CCOCC3)CC2)c(C(F)(F)F)c1 [N-{4-[1-(2-Morpholin-4-yl-acetyl)-piperidin-4-yl]-3-trifluoromethyl-benzoyl}-guanidine]
13,27,N=C(N)NC(=O)c1ccc(C2CCN(C(=O)Cc3cccnc3)CC2)c(C(F)(F)F)c1 [N-{4-[1-(2-Pyridin-3-yl-acetyl)-piperidin-4-yl]-3-trifluoromethyl-benzoyl}-guanidine]
14,6,Cc1cc(C2CCN(C(=O)CN(C)C)CC2)c(C(F)(F)F)cc1C(=O)NC(=N)N [N-{4-[1-(2-dimethylamino-acetyl)-piperidin-4-yl]-2-methyl-5-trifluoromethyl-benzoyl}-guanidine]
15,8,N=C(N)NC(=O)c1ccc(C2CCN(C(=O)CCN)CC2)c(C(F)(F)F)c1 [N-{4-[1-(3-Amino-propionyl)-piperidin-4-yl]-3-trifluoromethyl-benzoyl}-guanidine]
16,180,N=C(N)NC(=O)c1ccc(C2CCN(C(=O)c3cccc(Br)c3)CC2)c(C(F)(F)F)c1 [N-{4-[1-(3-Bromo-benzoyl)-piperidin-4-yl]-3-trifluoromethyl-benzoyl}-guanidine]
17,19,COc1cc(C2CCN(C(=O)c3cccc(C#N)c3)CC2)c(C(F)(F)F)cc1C(=O)NC(=N)N [N-{4-[1-(3-Cyano-benzoyl)-piperidin-4-yl]-2-methoxy-5-trifluoromethyl-benzoyl}-guanidine]
18,65,N#Cc1cccc(C(=O)N2CCC(c3ccc(C(=O)NC(=N)N)cc3C(F)(F)F)CC2)c1 [N-{4-[1-(3-Cyano-benzoyl)-piperidin-4-yl]-3-trifluoromethyl-benzoyl}-guanidine]
19,77,CN(C)c1cccc(C(=O)N2CCC(c3ccc(C(=O)NC(=N)N)cc3C(F)(F)F)CC2)c1 [N-{4-[1-(3-Dimethylamino-benzoyl)-piperidin-4-yl]-3-trifluoromethyl-benzoyl}-guanidine]
20,10,CN(C)CCC(=O)N1CCC(c2ccc(C(=O)NC(=N)N)cc2C(F)(F)F)CC1 [N-{4-[1-(3-Dimethylamino-propionyl)-piperidin-4-yl]-3-trifluoromethyl-benzoyl}-guanidine]
